# Source: US20130217060A1 (Butamax(TM) Advanced Biofuels LLC, priority 2007, published 2013)
# Like-named read-outs stand apart in the source and are kept apart here.
# B1: BdhB protein: butanol dehydrogenase (SEQ ID NO:14) from C. acetobutylicum ATCC 824 expressed in E. coli (protein, listed as Clostridium acetobutylicum)
# chain: MVDFEYSIPTRIFFGKDKINVLGRELKKYGSKVLIVYGGGSIKRNGIYDKAVSILEKNSIKFYELAGVEPNPRVTTVEKGVKICRENGVEVVLAIGGGSAIDCAKVIAAACEYDGNPWDIVLDGSKIKRVLPIASILTIAATGSEMDTWAVINNMDTNEKLIAAHPDMAPKFSILDPTYTYTVPTNQTAAGTADIMSHIFEVYFSNTKTAYLQDRMAEALLRTCIKYGGIALEKPDDYEARANLMWASSLAINGLLTYGKDTNWSVHLMEHELSAYYDITHGVGLAILTPNWMEYILNNDTVYKFVEYGVNVWGIDKEKNHYDIAHQAIQKTRDYFVNVLGLPSRLRDVGIEEEKLDIMAKESVKLTGGTIGNLRPVNASEVLQIFKKSV
# B2: BdhA protein: butanol dehydrogenase (SEQ ID NO:16) from C. acetobutylicum 824 expressed in E. coli (protein, listed as Clostridium acetobutylicum)
# chain: MLSFDYSIPTKVFFGKGKIDVIGEEIKKYGSRVLIVYGGGSIKRNGIYDRATAILKENNIAFYELSGVEPNPRITTVKKGIEICRENNVDLVLAIGGGSAIDCSKVIAAGVYYDGDTWDMVKDPSKITKVLPIASILTLSATGSEMDQIAVISNMETNEKLGVGHDDMRPKFSVLDPTYTFTVPKNQTAAGTADIMSHTFESYFSGVEGAYVQDGIAEAILRTCIKYGKIAMEKTDDYEARANLMWASSLAINGLLSLGKDRKWSCHPMEHELSAYYDITHGVGLAILTPNWMEYILNDDTLHKFVSYGINVWGIDKNKDNYEIAREAIKNTREYFNSLGIPSKLREVGIGKDKLELMAKQAVRNSGGTIGSLRPINAEDVLEIFKKSY
# B3: crotonase protein: crotonase (SEQ ID NO:8) from C. acetobutylicum ATCC 824 expressed in E. coli (protein, listed as Clostridium acetobutylicum)
# chain: MELNNVILEKEGKVAVVTINRPKALNALNSDTLKEMDYVIGEIENDSEVLAVILTGAGEKSFVAGADISEMKEMNTIEGRKFGILGNKVFRRLELLEKPVIAAVNGFALGGGCEIAMSCDIRIASSNARFGQPEVGLGITPGFGGTQRLSRLVGMGMAKQLIFTAQNIKADEALRIGLVNKVVEPSELMNTAKEIANKIVSNAPVAVKLSKQAINRGMQCDIDTALAFESEAFGECFSTEDQKDAMTAFIEKRKIEGFKNR
# Tests used:
# [1] = tested on: acetoacetyl-CoA thiolase; test: Acetoacetyl-CoA thiolase activity in cell free extracts (absorbance 303 nm); conditions: cell free extract of arabinose-induced E. coli BL21-AI culture, one typical assay
# [2] = tested on: E. coli strain BW25113; test: Survival of E. coli after 30 min MEK shock (colony counts); format: cell-based, Escherichia coli; conditions: for % Survival at 28° C. / % Survival at 37° C.: average of duplicate experiments
# [3] = tested on: Lactobacillus plantarum PN0512; test: Growth of L. plantarum PN0512 in the presence of butanols at different temperatures (OD600 for six hours); format: cell-based; parameters: key to Growth in the presence of 1-butanol / Growth in the presence of isobutanol / Growth in the presence of 2-butanol: “+” = growth observed as an increase in OD600.; “−” = no growth observed, i.e. no change in OD600
# [4] = tested on: Saccharomyces cerevisiae BY4741; conditions: for % Growth Inhibition: six hours
# Experimental: Tolerance levels were determined for yeast strain Saccharomyces cerevisiae BY4741 (described in Example 21) at 25° C. and 30° C. as follows. The strain was cultured in YPD medium. Overnight cultures in the absence of any test compound were started in 25 mL of YPD medium in 150 mL flasks with incubation at 30° C. or at 25° C. in shaking water baths. The next morning, each overnight culture was diluted into a 500 mL flask-containing 300 mL of fresh medium to an initial OD600 of about 0.1. The flasks were incubated in shaking water baths at 30° C. or 25° C., using the same temperature as used for each overnight culture. […] The ΔOD600 was calculated by subtracting the initial OD600 from the final OD600 at 6 hours. The percent growth inhibition relative to the control culture was calculated as follows: % Growth Inhibition=100−[100(Sample ΔOD600/Control ΔOD600)].
# [5] = target: 3-hydroxybutyryl-CoA dehydrogenase (Clostridium acetobutylicum, UniProt P52041); test: Hydroxybutyryl-CoA dehydrogenase activity (NADH oxidation, 340 nm); conditions: induced E. coli BL21-AI culture, one typical assay
# Chain of 3-hydroxybutyryl-CoA dehydrogenase (P52041 whole entry): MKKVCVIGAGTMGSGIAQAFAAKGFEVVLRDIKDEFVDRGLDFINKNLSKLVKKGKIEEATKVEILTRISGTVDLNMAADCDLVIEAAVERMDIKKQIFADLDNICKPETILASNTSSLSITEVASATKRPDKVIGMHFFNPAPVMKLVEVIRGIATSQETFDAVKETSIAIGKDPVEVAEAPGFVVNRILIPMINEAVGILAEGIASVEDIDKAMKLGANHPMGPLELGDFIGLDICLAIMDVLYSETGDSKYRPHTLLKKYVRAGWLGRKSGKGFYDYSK
# [6] = tested on: butanol dehydrogenase; test: Butanol dehydrogenase activity (NADH oxidation, 340 nm); format: biochemical, Clostridium acetobutylicum; conditions: induced E. coli BL21-AI culture, one typical assay
# [7] = target: T1, crotonase (Clostridium acetobutylicum, UniProt P52046); test: Crotonase activity assay (Stern); format: biochemical; conditions: induced E. coli BL21-AI culture, one typical assay
# T1 construct: made in house; host or cells: E. coli BL21-AI (pDEST14crt); S. cerevisiae BY4741 (pNY11) and BY4743 (pNY103)
# Experimental: Crotonase activity was assayed as described by Stern (Methods Enzymol. 1, 559-566, (1954)).
# Enzyme assays were performed as described above.
molecule,measurement,setting,value
ThIA protein: acetoacetyl-CoA thiolase (SEQ ID NO:2) from C. acetobutylicum ATCC 824 expressed in E. coli,specific activity (acetoacetyl-CoA thiolase),[1],16.0 µmol/mg/min
ThIB protein: acetoacetyl-CoA thiolase (SEQ ID NO:4) from C. acetobutylicum ATCC 824 expressed in E. coli,specific activity (acetoacetyl-CoA thiolase),[1],14.9 µmol/mg/min
"CCC(C)=O [MEK, 2-butanone]",% Survival at 28° C.,[2]; MEK 4 % w/v,100%
same,% Survival at 37° C.,[2]; MEK 4 % w/v,100%
same,% Survival at 28° C.,[2]; MEK 6 % w/v,100%
same,% Survival at 37° C.,[2]; MEK 6 % w/v,0%
same,% Survival at 28° C.,[2]; MEK 8 % w/v,0.002%
same,% Survival at 37° C.,[2]; MEK 8 % w/v,0%
same,concentration with full survival,[2]; exposure at 28° C.,6 % w/v
same,concentration with full survival,[2]; exposure at 37° C.,4 % w/v
same,concentration with no survival,[2]; exposure at 37° C.,6 % w/v
CC(C)CO [isobutanol],Growth in the presence of isobutanol,"[3]; 3.3 % w/v, 30° C.",−
1-butanol,Growth in the presence of 1-butanol,"[3]; 1.0 % w/v, 37° C.",+
same,Growth in the presence of 1-butanol,"[3]; 1.2 % w/v, 37° C.",+
same,Growth in the presence of 1-butanol,"[3]; 1.4 % w/v, 37° C.",+
same,Growth in the presence of 1-butanol,"[3]; 1.5 % w/v, 25° C.",+
same,Growth in the presence of 1-butanol,"[3]; 1.5 % w/v, 30° C.",+
same,Growth in the presence of 1-butanol,"[3]; 1.5 % w/v, 37° C.",+
same,Growth in the presence of 1-butanol,"[3]; 1.6 % w/v, 37° C.",+
same,Growth in the presence of 1-butanol,"[3]; 1.8 % w/v, 37° C.",+
same,Growth in the presence of 1-butanol,"[3]; 2.0 % w/v, 25° C.",+
same,Growth in the presence of 1-butanol,"[3]; 2.0 % w/v, 30° C.",+
same,Growth in the presence of 1-butanol,"[3]; 2.0 % w/v, 37° C.",+
same,Growth in the presence of 1-butanol,"[3]; 2.1 % w/v, 37° C.",+
same,Growth in the presence of 1-butanol,"[3]; 2.2 % w/v, 37° C.",+
same,Growth in the presence of 1-butanol,"[3]; 2.3 % w/v, 37° C.",+
same,Growth in the presence of 1-butanol,"[3]; 2.4 % w/v, 25° C.",+
same,Growth in the presence of 1-butanol,"[3]; 2.4 % w/v, 30° C.",+
same,Growth in the presence of 1-butanol,"[3]; 2.4 % w/v, 37° C.",−
same,Growth in the presence of 1-butanol,"[3]; 2.7 % w/v, 30° C.",+
same,Growth in the presence of 1-butanol,"[3]; 2.7 % w/v, 37° C.",−
same,Growth in the presence of 1-butanol,"[3]; 2.9 % w/v, 25° C.",+
same,Growth in the presence of 1-butanol,"[3]; 2.9 % w/v, 30° C.",−
same,Growth in the presence of 1-butanol,"[3]; 2.9 % w/v, 37° C.",−
same,Growth in the presence of 1-butanol,"[3]; 3.1 % w/v, 25° C.",+
same,Growth in the presence of 1-butanol,"[3]; 3.1 % w/v, 30° C.",−
same,Growth in the presence of 1-butanol,"[3]; 3.1 % w/v, 37° C.",−
same,Growth in the presence of 1-butanol,"[3]; 3.2 % w/v, 25° C.",−
same,Growth in the presence of 1-butanol,"[3]; 3.2 % w/v, 30° C.",−
same,Growth in the presence of 1-butanol,"[3]; 3.3 % w/v, 25° C.",−
same,Growth in the presence of 1-butanol,"[3]; 3.4 % w/v, 25° C.",−
same,Growth in the presence of 1-butanol,"[3]; 3.4 % w/v, 30° C.",−
same,concentration in which growth was observed,[3]; 25° C.,3.1%
same,concentration in which growth was not observed,[3]; 30° C.,2.9%
same,concentration in which growth was observed,[3]; 30° C.,2.7%
same,concentration in which growth was not observed,[3]; 37° C.,2.4%
same,concentration in which growth was observed,[3]; 37° C.,2.3%
same,Growth in the presence of 1-butanol,"[3]; […] w/v, 37° C.",−
same,growth inhibition of strain BY4741 at 25° C. compared with 30° C.,[4]; 1% 1-butanol,less inhibited
same,% Growth Inhibition,"[4]; 1% 1-butanol, 25° C.",43%
same,% Growth Inhibition,"[4]; 1% 1-butanol, 30° C.",64%
same,% Growth Inhibition,"[4]; 2% 1-butanol, 25° C.",No growth
same,% Growth Inhibition,"[4]; 2% 1-butanol, 30° C.",No growth
CCC(C)O (centres unmarked) [2-butanol],Growth in the presence of 2-butanol,"[3]; 1.8 % w/v, 37° C.",+
same,Growth in the presence of 2-butanol,"[3]; 2.1 % w/v, 37° C.",+
same,Growth in the presence of 2-butanol,"[3]; 2.9 % w/v, 25° C.",+
same,Growth in the presence of 2-butanol,"[3]; 2.9 % w/v, 30° C.",+
same,Growth in the presence of 2-butanol,"[3]; 2.9 % w/v, 37° C.",+
same,Growth in the presence of 2-butanol,"[3]; 3.1 % w/v, 37° C.",+
same,Growth in the presence of 2-butanol,"[3]; 3.6 % w/v, 37° C.",+
same,Growth in the presence of 2-butanol,"[3]; 3.8 % w/v, 25° C.",+
same,Growth in the presence of 2-butanol,"[3]; 3.8 % w/v, 30° C.",+
same,Growth in the presence of 2-butanol,"[3]; 3.8 % w/v, 37° C.",+
same,Growth in the presence of 2-butanol,"[3]; 4.0 % w/v, 30° C.",+
same,Growth in the presence of 2-butanol,"[3]; 4.3 % w/v, 25° C.",+
same,Growth in the presence of 2-butanol,"[3]; 4.3 % w/v, 30° C.",+
same,Growth in the presence of 2-butanol,"[3]; 4.3 % w/v, 37° C.",+
same,Growth in the presence of 2-butanol,"[3]; 4.7 % w/v, 25° C.",+
same,Growth in the presence of 2-butanol,"[3]; 4.7 % w/v, 30° C.",+
same,Growth in the presence of 2-butanol,"[3]; 4.7 % w/v, 37° C.",−
same,Growth in the presence of 2-butanol,"[3]; 4.9 % w/v, 25° C.",+
same,Growth in the presence of 2-butanol,"[3]; 4.9 % w/v, 30° C.",−
same,Growth in the presence of 2-butanol,"[3]; 5.2 % w/v, 25° C.",+
same,Growth in the presence of 2-butanol,"[3]; 5.2 % w/v, 37° C.",−
same,Growth in the presence of 2-butanol,"[3]; 5.6 % w/v, 25° C.",−
same,Growth in the presence of 2-butanol,"[3]; 5.6 % w/v, 37° C.",−
same,Growth in the presence of 2-butanol,"[3]; 6.0 % w/v, 37° C.",−
same,Growth in the presence of 2-butanol,"[3]; 6.4 % w/v, 37° C.",−
same,Growth in the presence of 2-butanol,"[3]; 7.3 % w/v, 37° C.",−
same,concentration in which growth was observed,[3]; 25° C.,5.2%
same,concentration in which growth was not observed,[3]; 30° C.,4.9%
same,concentration in which growth was observed,[3]; 30° C.,4.7%
same,concentration in which growth was not observed,[3]; 37° C.,4.5%
same,concentration in which growth was observed,[3]; 37° C.,4.3%
same,Growth in the presence of 2-butanol,"[3]; […] w/v, 30° C.",+
BHBD protein: 3-hydroxybutyryl-CoA dehydrogenase (SEQ ID NO:6) from C. acetobutylicum ATCC 824 expressed in E. coli,specific activity (hydroxybutyryl-CoA dehydrogenase),[5],57.4 µmol/mg/min
B1,specific activity (butanol dehydrogenase),[6],0.169 µmol/mg/min
B2,specific activity (butanol dehydrogenase),[6],0.102 µmol/mg/min
B3,specific activity (crotonase),[7],444 µmol/mg/min
